According to patent publication US11286263B2, “Macrocyclic fluorine substituted indole derivatives” (The Broad Institute, Inc., priority 2017, dated 2022):
pIC50: −log10 of the molar value. Counter-ions that a name gives are not always drawn. Like-named read-outs stand apart in the source and are kept apart here.

Legend:
MCL-1 = MCL-1 (Homo sapiens (Human), UniProt Q07820, K194A/K197A/R201A); test: Protein-protein interaction assay MCL-1/Noxa BH3 peptide (MCL-1 assay), TR-FRET; type: binding; settings: MCL-1/Noxa BH3 peptide TR-FRET; median
Protocol: Protein-Protein Interaction Assay: MCL-1/Noxa BH3 Peptide (MCL-1 Assay)
The dose-dependent inhibition by the compounds described in this invention of the interaction between MCL-1 and the BH3 domain of Noxa (both human) was determined using a steady state binding competition assay with time-resolved fluorescence energy transfer (TR-FRET) readout. For that purpose MCL-1 (amino acids 173-321, N-terminal fused to Maltose Binding Protein (MBP) SEQ ID 1)) and a synthetic Noxa BH3-derived peptide of sequence Biotin-PEG2-PEG2-PAELEVE-Nva-ATQLRRFGDKLNFRQKLL-amide (SEQ ID 2) served as protein receptor and tracer ligand respectively. The MBP-MCL-1 was purchased from Beryllium (Bedford, Mass., USA). The expression and purification of this protein construct has been described elsewhere (DOI:10.1371/journal.pone.0125010). The Noxa BH3-derived peptide can be obtained from e.g. Biosyntan (Berlin, Germany).
In the assay 11 different concentrations of each compound (0.1 nM, 0.33 nM, 1.1 nM, 3.8 nM, 13 nM, 44 nM, 0.15 μM, 0.51 μM, 1.7 μM, 5.9 μM and 20 μM) were typically measured as duplicates in the same microtiter plate. For that, 100-fold concentrated DMSO solutions were prepared by serial dilutions (1:3.4) of a 2 mM stock solution in a clear, 384-well microtiter plate (Greiner Bio-One, Frickenhausen, Germany). From there, 50 nl were transferred in a dark test plate (Greiner Bio-One, Frickenhausen, Germany). The assay was initiated by addition of 2 μl of a 2,5-fold concentrated MBP-MCL-1 solution (usually for a 1 nM end concentration in 5 μl reaction volume) in aqueous assay buffer [50 mM Tris/HCl pH 7, 100 mM sodium chloride (NaCl), 50 mM potassium fluoride (KF), 0.005% Tween-20, 2 mM DTT, 0.1% bovine gamma globulin (BGG)] to the compounds in the assay plate. This was followed by a 10-minute incubation step at 22° C. for pre-equilibration of the putative complex between MBP-MCL-1 and the compounds. After that, 3 μl of a 1.67-fold concentrated solution (in assay buffer) consisting of Noxa BH3-derived peptide (1 nM end concentration) and TR-FRET detection reagents [1.67 nM anti-MBP-Eu cryptate and 1.67 nM streptavidin-XL665 (both from Cisbio Bioassays, Codolet, France)], were added.
The mixture was incubated in the dark for one hour at 22° C. and then overnight at 4° C. The formation of MCL-1/Noxa complexes was determined by measuring the resonance energy transfer of the anti-MBP-Eu-cryptate antibody to the streptavidin-XL665 present in the reaction. For that purpose, the fluorescence emission at 620 nm and 665 nm after excitation at 330-350 nm was measured in a TR-FRET measuring instrument, for instance a Rubystar or a Pherastar (both from BMG Lab Technologies, Offenburg, Germany) or a Viewlux (Perkin-Elmer). The ratio of the emission at 665 nm and at 622 nm was used as indicator of the amount of MCL-1/NOXA complexes present.
The resulting data (ratio) were normalized, taking 0% inhibition as the mean value of control measurements (usually 32 data points) where all reagents were included. In this case 50 nl DMSO were used instead of compounds. A 100% inhibition corresponded to the mean value of control measurements (usually 32 data points) where all reagents except MCL-1 were included. IC50 values were determined by regression analysis based on a 4 parameter equation (minimum, maximum, IC50, Hill; Y=Max+(Min−Max)/(1+(X/IC50)^Hill) using the Screener Software (Genedata).

MV-4-11 = test: Antiproliferation assay MV-4-11 (Assay 7); type: cell-based; settings: MV-4-11 cells, CellTiter-Glo, single determinations, read-out: IC50 Antiproli MV-4-11
Protocol: (§1) Assessment of the Anti-Proliferative Effect of Compounds in Different Cell Lines
(§2) The impact of compounds on the proliferation of different cell lines was assessed using the CellTiter-Glo® Luminescent Cell Viability reagent from Promega (G7573).
(§3) In parallel, cells were plated in a reference (day 0) plate for time zero determination.
(§4) Rim wells were excluded. The cells were incubated for 72 h hours in a humidified incubator at 37° C. The day 0 plate was measured by adding 30 μL/well of CTG solution (CellTiter-Glo® Luminescent Cell Viability reagent, Promega G7573) to time zero wells in the reference plate followed by a 10 minutes incubation and luminescence reading at 0.1 ms. using the PHERAstar FS microplate reader (BMG Labtech).
(§5) After 72 h incubation, the treated plates were measured in the same way as the day 0 plate mentioned above.

SUDHL5 [1] = test: Induction of cytotoxicity, SUDHL5 (Assay 6); settings: read-out: IC50 Cytotox SUDHL5 [M] (median), SUDHL5 cells, 5 h, CellTiter-Glo
Protocol: (§11) In principle, compounds that induce apoptosis will concomitantly induce cell cytotoxicity. Therefore, cytotoxicity assays were run in parallel in SUDHL5 and SUDHL10 cells.
(§12) The different cell lines were plated in culture medium (RPMI 1640 [GIBCO #22400-089] supplemented with 10% Fetal Bovine Serum) at a density of 3,300 cells in 30 μl/well in a sterile, solid black, flat bottom, polystyrene, TC-treated 384-well microplate (Corning #3571) using Multidrop Combi Reagent Dispenser. As a control, medium without cells was also added to the plate. Cells were incubated in a humidified incubator at 37° C. overnight. On the next day, the cells were treated with compounds (stock solution, 10 mM in DMSO) using the HP D300 Digital Dispenser in a concentration range of 3.3×10e-5 M (33 μM) to 5×10e-9 M (5 nM) in a single-dot curve with at least 16 dilutions and a DMSO concentration of 0.33%. Rim wells were excluded. The cells were incubated for 5 h hours in a humidified incubator at 37° C. After this incubation, 30 μl of CellTiter-Glo® Luminescent Cell Viability reagent (Promega, G7573) was added to each well using the Multidrop Combi Reagent Dispenser, followed by 15 min incubation on a shaker at room temperature. Finally, luminescence was read at 0.1 ms, with a gain of 3000 using the PHERAstar FS microplate reader (BMG Labtech).
(§13) The Bella DRC Master Sheet was used to calculate IC50s, with fixed CI=0 and C0=1.

SUDHL5 [2] = test: Antiproliferation assay SUDHL5 (Assay 7); type: cell-based
Protocol: as §1, §2, §3, §4, §5

SUDHL10 [3] = test: Induction of caspase-3/7 activity, SUDHL10 (Assay 4); type: cell-based
Protocol: (§6) Induction of Caspase-3/7 Activity upon Treatment of Cells with Selected Compounds
(§7) The BH3-domain of MCL-1 sequesters pro-apoptotic proteins, thereby inhibiting apoptosis. In contrast, MCL-1 inhibitors are expected to antagonize this effect leading to an increase in apoptosis, which can be determined by measuring the activity of caspase-3/7.
(§8) The activity of caspase-3/7 was determined in DLBCL (Diffuse large B-cell lymphoma) cell lines (SUDHL5 and SUDHL10) upon treatment with different compounds, using the Caspase-Glo® 3/7 reagent from Promega (G8092).
(§9) Rim wells were excluded. The cells were incubated for 3 h hours in a humidified incubator at 37° C.
(§10) For the evaluation of the results, the background measured with “medium-only” was subtracted from all other values. […] The Bella DRC Master Sheet was used to calculate EC50s, with fixed C0=1 and Cl=plateau/max induction for the reference compound.

SUDHL10 [4] = test: Induction of cytotoxicity, SUDHL10 (Assay 6); settings: read-out: IC50 Cytotox SUDHL10 [M] (median), SUDHL10 cells, 5 h, CellTiter-Glo
Protocol: as §11, §12, §13

SUDHL5 [5] = test: Induction of caspase-3/7 activity, SUDHL5 (Assay 4); type: cell-based
Protocol: as §6, §7, §8, §9, §10

AMO-1 = test: Antiproliferation assay AMO-1 (Assay 7); type: cell-based; settings: AMO-1 cells, CellTiter-Glo, single determinations, read-out: IC50 Antiproli AMO-1
Protocol: as §1, §2, §3, §4, §5

A2780 = test: Antiproliferation assay A2780 (Assay 7); type: cell-based; settings: A2780 cells, CellTiter-Glo, single determinations, read-out: IC50 Antiproli A2780
Protocol: as §1, §2, §3, §4, §5

[6] = 72 h, trifluoroacetic acid salt
[7] = SUDHL5 cells, 72 h, CellTiter-Glo; median; read-out: IC50 Antiproli SUDHL5 [M] (median)
[8] = SUDHL5 cells, 3 h, Caspase-Glo 3/7; median
[9] = SUDHL10 cells, 3 h, Caspase-Glo 3/7; median

Sequence of MCL-1 (Q07820 whole entry K194A/K197A/R201A, looked up): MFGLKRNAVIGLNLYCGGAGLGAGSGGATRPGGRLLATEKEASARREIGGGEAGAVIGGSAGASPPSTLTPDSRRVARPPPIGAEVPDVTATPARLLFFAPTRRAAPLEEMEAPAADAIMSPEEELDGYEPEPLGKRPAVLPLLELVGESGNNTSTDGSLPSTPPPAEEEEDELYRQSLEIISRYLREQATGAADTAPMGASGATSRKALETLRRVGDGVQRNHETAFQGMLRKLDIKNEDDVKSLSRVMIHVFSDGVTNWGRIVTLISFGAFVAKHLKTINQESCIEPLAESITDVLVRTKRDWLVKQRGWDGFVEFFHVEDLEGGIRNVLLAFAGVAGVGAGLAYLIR

IC50 (MCL-1) | pIC50 (MV-4-11; 72 h) | IC50 (SUDHL5 [2]; [7]) | EC50 (SUDHL5 [5]; [8]) | EC50 (SUDHL10 [3]; [9]) | Structure (SMILES) | pIC50 (MV-4-11; Homo sapiens, MV4-11, 72 h) | IC50 (SUDHL5 [1]; Homo sapiens, SU-DHL-5, 5 h) | IC50 (SUDHL10 [4]; Homo sapiens, SU-DHL10, 5 h) | pIC50 (AMO-1; 72 h) | IC50 (SUDHL5 [1]) | IC50 (SUDHL10 [4]) | further results
0.002 µM | 4.82 | – | – | – | CCc1nn(C)c2c1-c1c(F)ccc3c(CCCOc4ccc(F)c5ccccc45)c(C(=O)O)n(c13)CCCCOC2 (racemic) [Example 41, (rac)-12-ethyl-13-fluoro-1-(3-((4-fluoronaphthalen-1-yl)oxy)propyl)-10-methyl-4,5,6,7,9,10-hexahydropyrazolo[4′,3′:9,10][1]oxa[6]azacycloundecino[8,7,6-hi]indole-2-carboxylic acid] | 4.96 | 3e-06 M | 7.1e-06 M | 4.89 | – | – | IC50 (SUDHL5 [2]; Homo sapiens, SU-DHL-5, 72 h, SUDHL5 cells, CellTiter-Glo, median, read-out: IC50 Antiproli SUDHL5 [M] (median)): 2e-06 M; EC50 (SUDHL10 [3]; Homo sapiens, SU-DHL10, 3 h, SUDHL10 cells, Caspase-Glo 3/7, median): 14 µM; EC50 (SUDHL5 [5]; Homo sapiens, SU-DHL-5, 3 h, SUDHL5 cells, Caspase-Glo 3/7, median): 2.2 µM; pIC50 (AMO-1; Homo sapiens, AMO1, 72 h): 4.82
0.065 µM | – | > 3.3e-05 M | > 33 µM | – | Cc1c2c(nn1C)COCCCCn1c(C(=O)O)c(CCCOc3cccc4ccccc34)c3ccc(F)c-2c31 (single isomer, unassigned; enantiomer 2) [Example 4, 4-fluoro-2,3-dimethyl-7-[3-(naphthalen-1-yloxy)propyl]-2,10,11,12,13,15-hexahydropyrazolo-[4′,3′:9,10][1,6]oxazacycloundecino[8,7,6-hi]indole-8-carboxylic acid-N-ethylethanamine salt (enantiomer 2)] | – | – | – | – | > 3.3e-05 M | – | pIC50 (MV-4-11; 72 h, listed as 04): < 4.48; pIC50 (A2780; 72 h, listed as 04): < 4.48
0.06 µM | 4.68 | 1.1e-05 M | > 33 µM | > 33 µM | Cc1c2c(nn1C)COCCCCn1c(C(=O)O)c(CCCOc3ccc(F)c4ccccc34)c3ccc(F)c-2c31 (single isomer, unassigned; enantiomer 2) [Example 17, 4-fluoro-7-{3-[(4-fluoronaphthalen-1-yl)oxy]propyl}-2,3-dimethyl-2,10,11,12,13,15-hexahydro-pyrazolo[4′,3′:9,10][1,6]oxazacycloundecino[8,7,6-hi]indole-8-carboxylic acid (enantiomer 2)] | – | – | – | < 4.48 | > 3.3e-05 M | > 3.3e-05 M | –
0.065 µM | 4.86 | 1.2e-05 M | > 33 µM | > 33 µM | CCc1c2c(nn1C)COCCCCn1c(C(=O)O)c(CCCOc3ccc(F)c4ccccc34)c3ccc(F)c-2c31 (single isomer, unassigned; enantiomer 2) [Example 28, 3-ethyl-4-fluoro-7-{3-[(4-fluoronaphthalen-1-yl)oxy]propyl}-2-methyl-2,10,11,12,13,15-hexahydropyrazolo[4′,3′:9,10][1,6]oxazacycloundecino[8,7,6-hi]indole-8-carboxylic acid-N-ethylethanamine salt (enantiomer 2)] | – | – | – | < 4.48 | 1.8e-05 M | > 3.3e-05 M | –
0.11 µM | 4.90 | 1.5e-05 M | > 33 µM | > 33 µM | CCc1nn(C)c2c1-c1c(F)ccc3c(CCCOc4ccc(F)c5ccccc45)c(C(=O)O)n(c13)CCCCOC2 (single isomer, unassigned; enantiomer 2) [Example 43, 3-ethyl-4-fluoro-7-{3-[(4-fluoronaphthalen-1-yl)oxy]propyl}-1-methyl-1,10,11,12,13,15-hexahydropyrazolo[4′,3′:9,10][1,6]oxazacycloundecino[8,7,6-hi]indole-8-carboxylic acid (enantiomer 2)] | – | – | – | < 4.48 | > 3.3e-05 M | > 3.3e-05 M | –

Structure (SMILES) | IC50 (MCL-1) | pIC50 (MV-4-11; 72 h) | IC50 (SUDHL5 [2]; [7]) | EC50 (SUDHL5 [5]; [8]) | EC50 (SUDHL10 [3]; [9]) | pIC50 (MV-4-11; Homo sapiens, MV4-11, 72 h) | IC50 (SUDHL5 [1]; Homo sapiens, SU-DHL-5, 5 h) | IC50 (SUDHL10 [4]; Homo sapiens, SU-DHL10, 5 h) | pIC50 (AMO-1; 72 h) | IC50 (SUDHL5 [1]) | IC50 (SUDHL10 [4]) | further results
Cc1c2c(nn1C)CNCCCCn1c(C(=O)O)c(CCCOc3cccc4ccccc34)c3ccc(F)c-2c31 (racemic) [Example 47, (rac)-4-fluoro-2,3-dimethyl-7-[3-(1-naphthyloxy)propyl]-10,11,12,13,14,15-hexahydro-2H-pyrazolo[3′,4′:8,9][1,6]diazacycloundecino[10,11,1-hi]indole-8-carboxylic acid trifluoroacetic acid salt] | 0.00082 µM | – | – | – | – | 5.99 | 2.2e-06 M | 5.6e-06 M | – | – | – | pIC50 (MV-4-11; [6]): 5.88; IC50 (SUDHL5 [2]; Homo sapiens, SU-DHL-5; SUDHL5 cells, 72 h, CellTiter-Glo; median; read-out: IC50 Antiproli SUDHL5 [M] (median)): 2.1e-06 M; EC50 (SUDHL10 [3]; Homo sapiens, SU-DHL10; SUDHL10 cells, 3 h, Caspase-Glo 3/7; median): 5 µM; pIC50 (A2780; [6]): 4.72; pIC50 (A2780; Homo sapiens, A2780, 72 h): 4.68; EC50 (SUDHL5 [5]; Homo sapiens, SU-DHL-5; SUDHL5 cells, 3 h, Caspase-Glo 3/7; median): 1.4 µM
